Patent US11357779B2 (G1 Therapeutics, Inc., priority 2018, dated 2022)
Entries after “also recorded” stand apart in the source; their conditions may differ.

Experiments:
BT474 tumor = assay: Murine HER2+ ER+ CBX model, tumor growth and survival; type: in vivo; conditions: BT474 tumor-containing mice; Compound I 50 mg/kg by mouth once a day for 56 days
Description: Mice containing a BT474 tumor were treated with vehicle, Compound I (50 mg/kg by mouth once a day for 56 days), lapatinib+trastuzumab, or Compound I+lapatinib+trastuzumab.

ME-016 tumor = assay: Murine BRAFmut melanoma PDX model, tumor growth and survival; type: in vivo; conditions: ME-016 tumor-containing mice; Compound I 100 mg/kg, dabrafenib 25 mg/kg, trametinib 1 mg/kg
Description: Mice containing a ME-016 tumor were treated with vehicle, Compound I (100 mg/kg), dabrafenib (25 mg/kg), trametinib (1 mg/kg), Compound I+dabrafenib, Compound I+trametinib, dabrafenib+trametinib, and Compound I+dabrafenib+trametinib.

[1] = TG and TG-IR analysis of Form B; type: physicochemical
Description: The TG analyses were performed using a TA Instrument Q5000 thermogravimetric analyzer. Temperature calibration was performed using nickel and Alumel. The sample was placed in a platinum pan and inserted into the TG furnace. The furnace was heated under a nitrogen purge to 350° C. at a rate of 10° C./min.
Thermogravimetric infrared (TG-IR) analysis was performed on a TA Instruments Q5000 IR thermogravimetric (TG) analyzer interfaced to a Magna-IR 560@ Fourier transform infrared (FT-IR) spectrophotometer (Thermo Nicolet) equipped with an Ever-Glo mid/far IR source, a potassium bromide (KBr) beamsplitter, and a mercury cadmium telluride (MCT-A) detector. The FT-IR wavelength verification was performed using polystyrene, and the TG calibration standards were nickel and Alumel™. The sample was placed in a platinum sample pan and the pan was inserted into the TG furnace. The TG instrument was started first, immediately followed by the FT-IR instrument. The TG instrument was operated under a flow of helium at 90 and 10 cc/minute for the purge and balance, respectively. The furnace was heated under helium at a rate of 20° C./minute to a final temperature of approximately 140° C. IR spectra were collected approximately every 32 seconds for approximately 7.5 minutes. Each IR spectrum represents 32 co-added scans collected at a spectral resolution of 4 cm-1. Volatiles were identified from a search of the High Resolution Nicolet Vapor Phase spectral library.
A TG-IR experiment was carried out on pure Form B (Sample 11 from the small-scale slurry experiments) at […] in an effort to investigate the stability of Form B at elevated temperature by monitoring potential release of hydrogen chloride.

[2] = system: HR+, HER2− locally advanced or metastatic breast cancer; assay: Clinical efficacy of Form B of Compound II plus fulvestrant, RECIST Version 1.1; type: in vivo, human; conditions: FIG. 3, FIG. 4; with fulvestrant
Description: Target lesions in subjects from Example 1 were evaluated every 8 weeks using the RECIST, Version 1.1 criteria (Eisenhower 2009) as follows: • Complete Response (CR): Disappearance of all target lesions. Any pathological lymph nodes (whether target or nontarget) must have reduction in short axis to <10 mm. • Partial Response (PR): At least a 30% decrease in the sum of diameters of target lesions, taking as reference the baseline sum of diameters. • Progressive Disease (PD): At least a 20% increase in the sum of diameters of target lesions, taking as reference the smallest sum on study (this includes the baseline sum if that is the smallest on study). […] A response category of not evaluable (NE) was used when there was inadequate information to otherwise categorize the response status. • Non-target lesions were evaluated using the following criteria: • Complete Response (CR): Disappearance of all nontarget lesions and normalization of tumor marker level. […]
The overall response (OR) was determined by evaluation of the combination of target and nontarget lesion responses as outlined in Table 94.
The clinical efficacy of the combination of Form B of Compound II and fulvestrant for QD dosing for the subjects from Example 1 was evaluated using the above criteria. […]

[3] = Stability study under thermal stress, 60° C. for 7 days; type: physicochemical
Description: Forms A, B, and D were stored in an oven maintained at 60° C. for 7 days.

Q: Which results are given for `CC(C)N1CCN(c2ccc(Nc3ncc4cc5n(c4n3)C3(CCCCC3)CNC5=O)nc2)CC1` [Compound I, 2′-((5-(4-isopropylpiperazin-1-yl)pyridin-2-yl)amino)-7′,8′-dihydro-6′H-spiro[cyclohexane-1,9′-pyrazino[1′,2′:1,5]pyrrolo[2,3-d]pyrimidin]-6′-one]?
A: Median OS (BT474 tumor): 25 days; Median OS (ME-016 tumor): 42.5 days

Q: What does the source list for `CC(C)N1CCN(c2ccc(Nc3ncc4cc5n(c4n3)C3(CCCCC3)CNC5=O)nc2)CC1` [Compound II, 2′-((5-(4-isopropylpiperazin-1-yl)pyridin-2-yl)amino)-7′,8′-dihydro-6′H-spiro[cyclohexane-1,9′-pyrazino[1′,2′:1,5]pyrrolo[2,3-d]pyrimidin]-6′-one]?
A: TGA weight loss ([1]; at 26-120° C., 125 mg/mL Slurry, 30° C., 43 h VF, washed, Air-dried for 3.5 h): 10% weight loss at 26-; TGA weight loss ([1]; at 26-120° C., Vacuum drying, 22° C., 0.5 h, 15 in Hg, 22° C. 1.5 h, 27-28 in Hg): 9.9% weight loss at 26-; TGA weight loss ([1]; at 31-120° C., Vacuum drying, 22° C., 2.0 h, 27 in Hg): 7.5% weight loss at 31-

Q: With `CC(C)N1CCN(c2ccc(Nc3ncc4cc5n(c4n3)C3(CCCCC3)CNC5=O)nc2)CC1` [Form B] as the molecule, how does the “anti-tumor activity (waterfall and spider plots, target lesions)” value [2] read?
A: effective anti-tumor activity

Q: What about the “XRPD pattern after thermal stress” value [3] of the same molecule?
A: stable; also recorded: No change in the XRPD pattern; also recorded: remained unchanged
